According to PubChem BioAssay AID1963872 (Molecular Pharmacology Branch, DTP, NCI, 2024):

Test system: KRAS patient-derived spheroids with HUVEC/MSC, viability
Test: Anticancer human tumor 519858-162-T-J1-PDC patient-derived colon adenocarcinoma cell line growth inhibition [KRAS2]
Settings: for viability, T/C: stronger effect = lower value
How it was run: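 KRAS-mutant tumor cells were grown as spheroids with HUVEC endothelial cells and human MSCs as stroma. Targeted agents were tested alone and with KRAS pathway inhibitors. Doses started at or near clinical Cmax, or 10 microM, descending half-log.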

[1] = curve of first compound, second compound 0.1 µM
[2] = curve of first compound, second compound 0.316 µM
[3] = curve of first compound, second compound 1 µM
[4] = curve of first compound, second compound 3.16 µM
[5] = curve of first compound, second compound 10 µM
[6] = second compound 0.1 µM, first compound 0.0316 µM
[7] = second compound 0.1 µM, first compound 0.1 µM
[8] = second compound 0.1 µM, first compound 0.316 µM
[9] = second compound 0.1 µM, first compound 1 µM
[10] = second compound 0.1 µM, first compound 3.16 µM
[11] = second compound 0.316 µM, first compound 0.0316 µM
[12] = second compound 0.316 µM, first compound 0.1 µM
[13] = second compound 0.316 µM, first compound 0.316 µM
[14] = second compound 0.316 µM, first compound 1 µM
[15] = second compound 0.316 µM, first compound 3.16 µM
[16] = second compound 1 µM, first compound 0.0316 µM
[17] = second compound 1 µM, first compound 0.1 µM
[18] = second compound 1 µM, first compound 0.316 µM
[19] = second compound 1 µM, first compound 1 µM
[20] = second compound 1 µM, first compound 3.16 µM
[21] = second compound 3.16 µM, first compound 0.0316 µM
[22] = second compound 3.16 µM, first compound 0.1 µM
[23] = second compound 3.16 µM, first compound 0.316 µM
[24] = second compound 3.16 µM, first compound 1 µM
[25] = second compound 3.16 µM, first compound 3.16 µM
[26] = second compound 10 µM, first compound 0.0316 µM
[27] = second compound 10 µM, first compound 0.1 µM
[28] = second compound 10 µM, first compound 0.316 µM
[29] = second compound 10 µM, first compound 1 µM
[30] = second compound 10 µM, first compound 3.16 µM
[31] = second compound 0.1 µM, first compound 0.01 µM
[32] = second compound 0.316 µM, first compound 0.01 µM
[33] = second compound 1 µM, first compound 0.01 µM
[34] = second compound 3.16 µM, first compound 0.01 µM
[35] = second compound 10 µM, first compound 0.01 µM
[36] = second compound 0.1 µM, first compound 0.000316 µM
[37] = second compound 0.1 µM, first compound 0.001 µM
[38] = second compound 0.1 µM, first compound 0.00316 µM
[39] = second compound 0.316 µM, first compound 0.000316 µM
[40] = second compound 0.316 µM, first compound 0.001 µM
[41] = second compound 0.316 µM, first compound 0.00316 µM
[42] = second compound 1 µM, first compound 0.000316 µM
[43] = second compound 1 µM, first compound 0.001 µM
[44] = second compound 1 µM, first compound 0.00316 µM
[45] = second compound 3.16 µM, first compound 0.000316 µM
[46] = second compound 3.16 µM, first compound 0.001 µM
[47] = second compound 3.16 µM, first compound 0.00316 µM
[48] = second compound 10 µM, first compound 0.000316 µM
[49] = second compound 10 µM, first compound 0.001 µM
[50] = second compound 10 µM, first compound 0.00316 µM
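Further: compound exposure lasted seven days before readout.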
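Wherever viability, T/C is given: 100% = DMSO vehicle control viability.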

SMILES | IC50 [1] [nM] | IC50 [2] [nM] | IC50 [3] [nM] | IC50 [4] [nM] | IC50 [5] [nM] | viability, T/C [6] [%] | viability, T/C [7] [%] | viability, T/C [11] [%] | viability, T/C [12] [%] | viability, T/C [16] [%] | viability, T/C [17] [%] | viability, T/C [21] [%] | viability, T/C [22] [%] | viability, T/C [26] [%] | viability, T/C [27] [%] | viability, T/C [31] [%] | viability, T/C [32] [%] | viability, T/C [33] [%] | viability, T/C [34] [%] | viability, T/C [35] [%] | further results
COC(=O)c1ccc2c(C(=Nc3ccc(N(C)C(=O)CN4CCN(C)CC4)cc3)c3ccccc3)c(O)[nH]c2c1 + CC1OCC2(CCN(c3cnc(Sc4ccnc(N)c4Cl)c(N)n3)CC2)C1N | > 10000 | > 10000 | > 10000 | > 10000 | > 10000 | 66 | 80 | 72.7 | 67.5 | 75.4 | 75 | 47.9 | 60.9 | 49.9 | 58 |  |  |  |  |  | viability, T/C [8]: 63.4%; viability, T/C [9]: 66%; viability, T/C [10]: 99.7%; viability, T/C (second compound 0.1 µM, first compound 10 µM): 74.6%; viability, T/C [13]: 86.5%; viability, T/C [14]: 64.1%; viability, T/C [15]: 67%; viability, T/C (second compound 0.316 µM, first compound 10 µM): 98.8%; viability, T/C [18]: 56.9%; viability, T/C [19]: 70.7%; viability, T/C [20]: 64.6%; viability, T/C (second compound 1 µM, first compound 10 µM): 84%; viability, T/C [23]: 72.7%; viability, T/C [24]: 52.6%; viability, T/C [25]: 67.4%; viability, T/C (second compound 3.16 µM, first compound 10 µM): 83.2%; viability, T/C [28]: 64.7%; viability, T/C [29]: 69.2%; viability, T/C [30]: 75.3%; viability, T/C (second compound 10 µM, first compound 10 µM): 88.3%
CC(=O)OC12COC1CC(O)C1(C)C(=O)C(O)C3=C(C)C(OC(=O)C(O)C(NC(=O)OC(C)(C)C)c4ccccc4)CC(O)(C(OC(=O)c4ccccc4)C21)C3(C)C (configuration not stated) + C=CC(=O)N1CCN(c2nc(=O)n(-c3c(C)ccnc3C(C)C)c3nc(-c4c(O)cccc4F)c(F)cc23)C(C)C1 | > 3160 | > 3160 | > 3160 | > 3160 | > 3160 | 80.8 | 98.2 | 68.9 | 84.3 | 80.2 | 90.5 | 74.6 | 70 | 79 | 84.5 | 121 | 84.7 | 62.8 | 54.7 | 62.1 | viability, T/C [8]: 89.6%; viability, T/C [9]: 72.3%; viability, T/C [10]: 62.1%; viability, T/C [13]: 93.1%; viability, T/C [14]: 77.5%; viability, T/C [15]: 64.7%; viability, T/C [18]: 83.5%; viability, T/C [19]: 74.1%; viability, T/C [20]: 67.8%; viability, T/C [23]: 103%; viability, T/C [24]: 69.7%; viability, T/C [25]: 75.8%; viability, T/C [28]: 68.5%; viability, T/C [29]: 64.8%; viability, T/C [30]: 69.3%
CC(C)n1nc(-c2ccc3oc(N)nc3c2)c2c(N)ncnc21 + CNCc1ccccc1-c1csc(C(C)Nc2nc(C)nc3cc(OC)c(OC)cc23)c1 | > 100 | > 100 | > 100 | 5.41 | < 0.316 | 67 | 53.5 | 66.8 | 62.5 | 73.1 | 86.3 | 49.6 | 43.1 | 0.36 | 0.73 | 72.5 | 83.2 | 42.7 | 39.8 | 0.32 | viability, T/C [36]: 80.2%; viability, T/C [37]: 70.6%; viability, T/C [38]: 77.7%; viability, T/C [39]: 76.5%; viability, T/C [40]: 68.5%; viability, T/C [41]: 69.5%; viability, T/C [42]: 91.9%; viability, T/C [43]: 69.1%; viability, T/C [44]: 78.2%; viability, T/C [45]: 68%; viability, T/C [46]: 65%; viability, T/C [47]: 55.1%; viability, T/C [48]: 0.52%; viability, T/C [49]: 0.58%; viability, T/C [50]: 0.46%
Cn1ncnc1[C@H]1c2n[nH]c(=O)c3cc(F)cc(c23)N[C@@H]1c1ccc(F)cc1 + C=CC(=O)N1CCN(c2nc(=O)n(-c3c(C)ccnc3C(C)C)c3nc(-c4c(O)cccc4F)c(F)cc23)C(C)C1 | > 100 | > 100 | > 100 | > 100 | > 100 | 75.1 | 76.8 | 93 | 96.2 | 102 | 89.9 | 76.8 | 99.2 | 84.9 | 93.6 | 94.3 | 76 | 67.6 | 120 | 86.9 | viability, T/C [36]: 105%; viability, T/C [37]: 89.7%; viability, T/C [38]: 106%; viability, T/C [39]: 95.2%; viability, T/C [40]: 83.4%; viability, T/C [41]: 94.8%; viability, T/C [42]: 79.9%; viability, T/C [43]: 71.8%; viability, T/C [44]: 94.1%; viability, T/C [45]: 82%; viability, T/C [46]: 85.1%; viability, T/C [47]: 88.3%; viability, T/C [48]: 102%; viability, T/C [49]: 75.4%; viability, T/C [50]: 80.5%
CN(C)C/C=C/C(=O)Nc1cc2c(Nc3ccc(F)c(Cl)c3)ncnc2cc1O[C@H]1CCOC1 + CC1OCC2(CCN(c3cnc(Sc4ccnc(N)c4Cl)c(N)n3)CC2)C1N | > 100 | 19.7 | > 100 | 4.46 | 58.2 | 70.3 | 64.3 | 55.1 | 40.4 | 90.8 | 67.4 | 39.4 | 36.8 | 53.3 | 46.4 | 93.6 | 53.3 | 71.2 | 59.3 | 72.9 | viability, T/C [36]: 76.6%; viability, T/C [37]: 77.2%; viability, T/C [38]: 68%; viability, T/C [39]: 78.1%; viability, T/C [40]: 75%; viability, T/C [41]: 85.8%; viability, T/C [42]: 74.4%; viability, T/C [43]: 74.1%; viability, T/C [44]: 78.8%; viability, T/C [45]: 53.6%; viability, T/C [46]: 55.6%; viability, T/C [47]: 38.9%; viability, T/C [48]: 80%; viability, T/C [49]: 81.7%; viability, T/C [50]: 71.3%
CC(C)n1nc(-c2ccc3oc(N)nc3c2)c2c(N)ncnc21 + C=CC(=O)N1CCN(c2nc(=O)n(-c3c(C)ccnc3C(C)C)c3nc(-c4c(O)cccc4F)c(F)cc23)C(C)C1 | > 100 | > 100 | > 100 | > 100 | 81.5 | 76.3 | 60.1 | 57.6 | 54.5 | 87.3 | 54.9 | 64 | 56.1 | 62.3 | 47.1 | 67.5 | 58.9 | 56.7 | 68.8 | 86.7 | viability, T/C [36]: 114%; viability, T/C [37]: 102%; viability, T/C [38]: 104%; viability, T/C [39]: 87.5%; viability, T/C [40]: 94%; viability, T/C [41]: 70.2%; viability, T/C [42]: 108%; viability, T/C [43]: 78.4%; viability, T/C [44]: 67.3%; viability, T/C [45]: 94.3%; viability, T/C [46]: 75.1%; viability, T/C [47]: 74.6%; viability, T/C [48]: 85.4%; viability, T/C [49]: 76.6%; viability, T/C [50]: 69.6%
CC(C)n1nc(-c2ccc3oc(N)nc3c2)c2c(N)ncnc21 |  |  |  |  |  |  |  |  |  |  |  |  |  |  |  |  |  |  |  |  | viability, T/C (compound 0.001 µM): 97.5% [middle of 5 runs]; IC50 (curve of compound): > 100 nM
